Experimental data as given in article PMC10871122, “Synthesis and In Vitro Evaluation as Potential Anticancer and Antioxidant Agents of Diphenylamine-Pyrrolidin-2-one-Hydrazone Derivatives” (International Journal of Molecular Sciences, 2023).

Key:
[1] = tested on: tested cancer cell lines (IGR39, PPC-1, MDA-MB-231, Panc-1); assay: MTT cell viability assay, statements on the tested cancer cell lines together; type: cell-based, human; details: Homo sapiens; against IGR39 and PPC-1 cell lines
Procedure: (§1) The effect of synthesized compounds on cell viability was studied using 3-(4,5-dimethylthiazol-2-yl)-2,5-diphenyltetrazolium bromide (MTT; Sigma-Aldrich Co., St Louis, MO, USA) assay, as described elsewhere. To summarize, the cells were seeded in triplicates in 96-well Corning plates (IGR39, MDA-MB-231, Panc-1 and PPC1: 4 × 10^3 cells/well; HF: 5 × 10^3 cells/well). The cells were treated with 100 μM of tested compounds after 24 h of incubation. After 72 h, the MTT reagent was added and the formazan crystals that had formed were dissolved in DMSO (Sigma-Aldrich Co., St. Louis, MO, USA). The absorbance was determined with a multidetection microplate reader at 570 and 630 nm.
(§2) The compound serial dilutions ranging from 50 µM to 1.56 µM were introduced to the cells. The Hill equation was used to calculate the EC50 value, or the concentration of a compound that results in a 50% reduction in the metabolic activity of cells.

[2] = tested on: human triple-negative breast cancer MDA-MB-231 cell line; assay: MTT cell viability assay, MDA-MB-231; type: cell-based; details: 72 h; for EC50: Homo sapiens, MDA-MB-231
Text: (§3) The human malignant melanoma cell line IGR39, human triple-negative breast cancer MDA-MB-231, and human pancreatic carcinoma cell line Panc-1 were obtained from the American Type Culture Collection (ATCC, Manassas, VA, USA). Human foreskin fibroblasts (HF) CRL-4001 were originally obtained from ATCC and kindly provided by Prof. Helder Santos (University of Helsinki, Finland). Primary prostate carcinoma PPC-1 cell line was kindly provided by Prof. Tambet Teesalu (University of Tartu, Estonia). All cell lines were cultured in Dulbecco’s Modified Eagle’s GlutaMAX medium (Gibco (Carlsbad, CA, USA)), supplemented with 10,000 U/mL penicillin, 10 mg/mL streptomycin (Gibco), and 10% fetal bovine serum (Gibco). Cell cultures were grown at 37 °C in a humidified atmosphere containing 5% CO2. They were used until the passage of 20.
as §1, §2

[3] = tested on: human melanoma IGR39 cell line; assay: MTT cell viability assay, melanoma IGR39; type: cell-based; details: for effect on cell viability compared among the cell lines: 100 µM; for effect on cell viability compared among the cell lines / EC50: 72 h, MTT; for EC50: Homo sapiens, IGR-39, IGR39; for selectivity towards cancer cells compared to fibroblasts: IGR39 (melanoma) vs fibroblasts
Text: as §3, §1, §2

[4] = tested on: PPC-1 spheroids (cancer cells with fibroblasts 1:1); assay: 3D culture: PPC-1 spheroid size and viability (WST-1); type: cell-based, human; details: 5 and 10 µM, 8 days
Procedure: (§4) Spheroids were made of cancer cells combined with fibroblast in a 1:1 ratio to better represent the real tumor microenvironment.
(§5) The magnetic 3D Bioprinting method was utilized to form cancer cell spheroids as described elsewhere. In short, the cells at 70% confluency were incubated with Nanoshuttle (n3D Biosciences, Inc., Houston, TX, USA) for 8 h. After that, the cells were trypsinized, centrifuged and seeded into ultra-low attachment 96-well plate at a ratio of 1.5 × 10^3 cancer cells and 1.5 × 10^3 human fibroblasts/well. The plate was incubated for two days at 37 °C in a humidified atmosphere on a magnetic drive. Next, the medium with 5 and 10 µM of selected compounds was added. Photos of spheroids were taken every two days using an Olympus IX73 inverted microscope (OLYMPUS CORPORATION, Tokyo, Japan), and analysis of spheroid size was performed using ImageJ, version 1.53o (National Institutes of Health, Bethesda, MD, USA) and Microsoft Office Excel 2016 software (Microsoft Corporation, Redmond, WA, USA).
(§6) On the last day of experiment, 10 µL of WST-1 reagent (Sigma-Aldrich Co, St. Louis, MO, USA) was added to each well. Following 10-h incubation, 50 µL of liquid from each well was moved to another 96-well plate and the absorbance was measured at 460 and 530 nm.

[5] = tested on: IGR39 spheroids (cancer cells with fibroblasts 1:1); assay: 3D culture: IGR39 spheroid size and viability (WST-1); type: cell-based, human; details: for effect on spheroid growth / size: 5 and 10 µM, 8 days
Procedure: as §4, §5, §6

[6] = Ferric reducing antioxidant power (FRAP) assay
Text: The ferric reducing antioxidant power (FRAP) assay was used to evaluate the antioxidant potential of new compounds 2–17. Antioxidant assays are based on determining reduction power reactions (e.g., reduction Fe^3+ to Fe^2+) or scavenging free radicals (DPPH, ABTS). The FRAP assay is based on the method of single electron transfer (SET), measuring the reduction in the complex of ferric ions (Fe^3+)-ligand to the blue ferrous complex (Fe^2+). This method uses 2,4,6-tripyridyl-s-triazine (TPTZ) as the linking ligand to the iron. The antioxidant activity of the synthesized compounds was compared with that of the well-known antioxidant protocatechuic acid. […] PCA is a building block for pharmaceuticals and is widely used to produce many medicinal products such as veratridine (sodium channel inactivation inhibitor), erlotinib (antineoplastic), Picatin II (treatment of hepatitis B), itopride hydrochloride (gastrointestinal motility drug). PCA can also cause the induction of apoptosis of human leukemia cells. Moreover, the antioxidant activity of PCA is based on the reduction in free radical formation via the up-regulation of genes encoding enzymes with neutralizing activities.
Antioxidant activity was determined as an increase in absorbance at 593 nm, and the results were expressed as of Fe^2+ μmol/L and in relation to antioxidants, and protocatechuic acid, as positive control. The FRAP reagent contained 2.5 mL of 10 mM TPTZ solution in 40 mM HCl as well as 2.5 mL of FeCl3 (20 mM) and 25 mL of acetate buffer (0.3 M, pH = 3.6). Then, 100 μL of analyzed compounds (20 mM) were mixed with 3 mL of the FRAP reagent. The absorbance of the reaction mixture was measured spectrophotometrically at 593 nm using a UV-1280 UV-VIS spectrophotometer (Shimadzu Corporation, Kyoto, Japan). To compose the calibration curve, five concentrations of FeSO4·7H2O (5, 10, 15, 20, 25 μM) were used, and the absorbance was measured as a sample solution.

PPC-1 cell migration = assay: 'Wound healing' migration assay, PPC-1; type: cell-based, human; details: 72 h of incubation
Procedure: (§7) Cancer cells were seeded at a density of 6 × 10^4 cells/well in 24-well plates. After 48 h of incubation, a 100 µL pipette tip was used to make the scratch in each well. Following a single PBS wash, the fresh medium containing 2 and 5 µM of compounds 5, 6, 13, and 14 was added to the cells. As a negative control, medium containing 0.1% DMSO was employed.

[7] = tested on: prostate carcinoma PPC-1 cell line; assay: MTT cell viability assay, prostate carcinoma PPC-1; type: cell-based, human
Text: as §3, §1, §2

melanoma cell = tested on: melanoma cell; set-up: method as in PMID 21700700; details: cited from earlier work
Panc-1 cell migration = assay: 'Wound healing' migration assay, Panc-1; type: cell-based, human; details: 72 h of incubation
Procedure: as §7

IGR39 cell migration = assay: 'Wound healing' migration assay, IGR39; type: cell-based, human; details: 48 h of incubation; control 'wound' completely closed
Procedure: as §7

[8] = tested on: human pancreatic carcinoma Panc-1 cell line; assay: MTT cell viability assay, Panc-1; type: cell-based
Text: as §3, §1, §2

Structure (SMILES) | EC50 [1] [µM] | EC50 [2] [µM] | effect on cell viability compared among the cell lines [3] | EC50 [3] [µM] | melting point [°C] | effect on spheroid growth / size [4] | effect on spheroid growth / size [5] | selectivity towards cancer cells compared to fibroblasts [3] | effect on spheroid viability compared to the control ([5]; WST-1, end of experiment) | other results
O=C(NN=Cc1c[nH]c2ccccc12)C1CC(=O)N(c2ccc(Nc3ccccc3)cc2)C1 (stereo not drawn) [Compound 14, N′-((1H-indol-3-yl)methylene)-5-oxo-1-(4-(phenylamino)phenyl)pyrrolidine-3-carbohydrazide] | 2.5 to 20.2 | 19.8 ± 1.86 | strongest effect on melanoma cells | 10.4 ± 1.35 | 238 to 239 | slightly reduced the growth | became somewhat larger | – | – | –
O=C(NN=Cc1ccc(Cl)c(Cl)c1)C1CC(=O)N(c2ccc(Nc3ccccc3)cc2)C1 (stereo not drawn) [Compound 6, N′-(3,4-dichlorobenzylidene)-5-oxo-1-(4-(phenylamino)phenyl)pyrrolidine-3-carbohydrazide] | 2.5 to 20.2 | – | strongest effect on melanoma cells | – | 220 to 221 | – | – | 2.8 | statistically significant effect | reducing power activity compared to the control antioxidant ([6]; vs protocatechuic acid): higher than those of known antioxidants used as the controls; effect on cell migration (PPC-1 cell migration; higher concentration (5 µM)): inhibited
O=C(NN=Cc1cc(Cl)ccc1O)C1CC(=O)N(c2ccc(Nc3ccccc3)cc2)C1 (stereo not drawn) [Compound 5, N′-(5-chloro-2-hydroxybenzylidene)-5-oxo-1-(4-(phenylamino)phenyl)pyrrolidine-3-carbohydrazide] | 2.5 to 20.2 | – | strongest effect on melanoma cells | – | 223 to 224 | did not affect spheroid growth | did not affect spheroid growth | – | statistically significant effect | selectivity towards cancer cells compared to fibroblasts ([7]; prostate carcinoma vs fibroblasts): 3.6; spheroid cell viability (reduced up to) ([5]; WST-1, end of experiment): ~ 75%
CN(C)/N=N/c1[nH]cnc1C(N)=O [dacarbazine] | – | – | – | – | – | – | – | – | – | concentration that inhibits melanoma cell proliferation (melanoma cell): 25 to 100 µM
O=C(NN=Cc1ccc([N+](=O)[O-])s1)C1CC(=O)N(c2ccc(Nc3ccccc3)cc2)C1 (stereo not drawn) [Compound 13, N′-((5-nitrothiophen-2-yl)methylene)-5-oxo-1-(4-(phenylamino)phenyl)pyrrolidine-3-carbohydrazide] | 2.5 to 20.2 | 5.1 ± 0.8 | strongest effect on melanoma cells | 2.5 ± 0.46 | 235 to 236 | – | – | 2.8 | statistically significant effect | EC50 ([7]; Homo sapiens, MTT, 72 h, PPC-1): 3.63 ± 0.45 µM; cell viability compared to the control (inhibited up to) ([2]; 100 µM): ~ 9%; 'wound' area compared to the control (times larger) (Panc-1 cell migration): 7.5 times; 'wound' area (IGR39 cell migration): 15.8 ± 8.8%; FRAP reducing power (Fe^2+) ([6]; absorbance at 593 nm): 103.95 µmol/L; 'wound' area compared to the control (times larger) (PPC-1 cell migration): ~ 24 times; cell viability compared to the control (inhibited up to) ([8]; 100 µM, 72 h, MTT): ~ 9%; EC50 ([8]; Homo sapiens, MTT, 72 h, Panc-1): 5.77 ± 0.8 µM; selectivity towards cancer cells compared to fibroblasts ([8]; Panc-1 vs fibroblasts): 1.2
